Values quoted from earlier work, collected in US20220202844A1, “DRUG DELIVERY COMPOSITION AND A METHOD OF ADMINISTERING THE DRUG” (priority 2020, published 2022).
Values after ≈ are worked out from the molar mass of the structure shown.

Conditions: background statement

For `NC(=O)c1ccc[n+]([C@@H]2O[C@H](COP(=O)([O-])OP(=O)(O)OC[C@H]3O[C@@H](n4cnc5c(N)ncnc54)[C@H](O)[C@@H]3O)[C@@H](O)[C@H]2O)c1` [NAD+, nicotinamide adenine dinucleotide], which aqueous solubility is on record?
The aqueous solubility was 50 mg/mL (≈ 75.4 mM).
